# Assay results reported in patent US10647721B2, “Bicyclic heteroaryl derivatives” (Hoffmann-La Roche Inc., priority 2016, dated 2020).
# System: γ-secretase
# Test: Cellular γ-secretase assay (inhibition of Aβ42 secretion, AlphaLisa)
# Format: cell-based
# Conditions: human neuroglioma H4 cells overexpressing human APP695 Swedish double mutation, 24 hr compound incubation
# Method: Cellular γ-Secretase Assay
# Human neuroglioma H4 cells overexpressing human APP695 with the Swedish double mutation (K595N/M596L) were plated at 30,000 cells/well/100 μl in 96-well plates in IMDM media containing 10% FCS, 0.2 mg/l Hygromycin B and incubated at 37° C., 5% CO2.
# 3-4 hr post plating, compounds are a diluted in media and 50 μl is added as 1.5-fold concentrate to achieve the final concentration. Compound incubation is performed for 24 hr. Final doses typically range from 4 μm down to 0.0013 μm in half-log steps resulting in a eight point dose response curve.
# Appropriate controls using vehicle only and reference compound were applied to this assay. The final concentration of Me2SO was 0.4%.
# After incubation at 37° C., 5% CO2, the supernatant was subjected to quantification of secreted Aβ42 by the means of an AlphaLisa assay kit (Human Amyloid beta 1-42 Kit: Cat # AL203C, Perkin Elmer). 20 μl of the cell culture supernatant was transferred to an assay plate. Then 10 μl of a mixture of the AlphaLisa coupled capture antibody and the biotinylated detection antibody was added and incubated for 3 hours at room temperature while softly shaking the assay plate. After a further addition of 20 μl of the Donor beads the assay plate was incubated for 30 min at room temperature and constant shaking without exposure to direct light. The assay plate was then read on a Paradigm AlphaLisa Reader using the build-in program with excitation at 680 nm and emission at […].
# The measured signals were then used to calculate IC50 values for inhibition of Aβ42 secretion by nonlinear regression fit analysis using XLfit 5.3 software (IDBS).
row,EC50 [nM],Compound
1,16.6,"Cc1ncn(-c2ccc(Nc3nc4n(n3)CCCN4c3ccc(F)c(F)c3)cc2OC(F)F)n1 [Example 1, N-[3-(difluoromethoxy)-4-(3-methyl-1,2,4-triazol-1-yl)phenyl]-4-(3,4-difluorophenyl)-6,7-dihydro-5H-[1,2,4]triazolo[1,5-a]pyrimidin-2-amine]"
2,31.2,"Fc1ccc(N2CCCn3nc(Nc4ccc(-n5cnc(Cl)c5)cc4)nc32)cc1F [Example 23, N-[4-(4-chloroimidazol-1-yl)phenyl]-4-(3,4-difluorophenyl)-6,7-dihydro-5H-[1,2,4]triazolo[1,5-a]pyrimidin-2-amine]"
3,14.1,"COc1cc(Nc2nc3n(n2)CCCN3c2cccc(F)c2)ccc1-n1cnc(Cl)c1 [Example 32, N-[4-(4-chloroimidazol-1-yl)-3-methoxy-phenyl]-4-(3-fluorophenyl)-6,7-dihydro-5H-[1,2,4]triazolo[1,5-a]pyrimidin-2-amine]"
4,34.2,"Cc1ncn(-c2ccc(Nc3nc4n(n3)CCCN4c3ccc(F)cc3)cc2OC(F)F)n1 [Example 37, N-[3-(difluoromethoxy)-4-(3-methyl-1,2,4-triazol-1-yl)phenyl]-4-(4-fluorophenyl)-6,7-dihydro-5H-[1,2,4]triazolo[1,5-a]pyrimidin-2-amine]"
5,21.4,"COc1cc(Nc2nc3n(n2)CCCN3c2ccc(F)c(F)c2)cnc1-n1cnc(Cl)c1 [Example 5, N-[6-(4-chloroimidazol-1-yl)-5-methoxy-3-pyridyl]-4-(3,4-difluorophenyl)-6,7-dihydro-5H-[1,2,4]triazolo[1,5-a]pyrimidin-2-amine]"
6,56.1,"Cc1ncn(-c2ccc(Nc3nc4n(n3)CCCN4c3ccc(F)c(F)c3)cc2)n1 [Example 29, 4-(3,4-difluorophenyl)-N-[4-(3-methyl-1,2,4-triazol-1-yl)phenyl]-6,7-dihydro-5H-[1,2,4]triazolo[1,5-a]pyrimidin-2-amine]"
7,7.4,"COc1cc(Nc2nc3n(n2)CCCN3c2cc(F)cc(F)c2)ccc1-n1cnc(Cl)c1 [Example 42, N-[4-(4-chloroimidazol-1-yl)-3-methoxy-phenyl]-4-(3,5-difluorophenyl)-6,7-dihydro-5H-[1,2,4]triazolo[1,5-a]pyrimidin-2-amine]"
8,28.9,"COc1cc(Nc2nc3n(n2)CCCN3c2ccc(F)c(F)c2)ccc1-c1cnn(C)c1 [Example 20, 4-(3,4-difluorophenyl)-N-[3-methoxy-4-(1-methylpyrazol-4-yl)phenyl]-6,7-dihydro-5H-[1,2,4]triazolo[1,5-a]pyrimidin-2-amine]"
9,10,"COc1cc(Nc2nc3n(n2)CCCN3c2ccc(F)cc2)ccc1-n1cnc(Cl)c1 [Example 34, N-[4-(4-chloroimidazol-1-yl)-3-methoxy-phenyl]-4-(4-fluorophenyl)-6,7-dihydro-5H-[1,2,4]triazolo[1,5-a]pyrimidin-2-amine]"
10,21,"N#Cc1cc(Nc2nc3n(n2)CCCN3c2ccc(F)cc2)ccc1-n1cnc(Cl)c1 [Example 35, 2-(4-chloroimidazol-1-yl)-5-[[4-(4-fluorophenyl)-6,7-dihydro-5H-[1,2,4]triazolo[1,5-a]pyrimidin-2-yl]amino]benzonitrile]"
11,35.2,"COc1cc(Nc2nc3n(n2)CCCN3c2ccc(F)cc2)ccc1-n1cnc(C)n1 [Example 33, 4-(4-fluorophenyl)-N-[3-methoxy-4-(3-methyl-1,2,4-triazol-1-yl)phenyl]-6,7-dihydro-5H-[1,2,4]triazolo[1,5-a]pyrimidin-2-amine]"
12,40.4,"COc1cc(Nc2nc3n(n2)CCN3c2ccc(F)c(F)c2)ccc1-n1cnc(Cl)c1 [Example 46, N-[4-(4-chloroimidazol-1-yl)-3-methoxy-phenyl]-4-(3,4-difluorophenyl)-5,6-dihydroimidazo[1,2-b][1,2,4]triazol-2-amine]"
13,52.1,"Cc1cn(-c2ccc(Nc3nc4n(n3)CCCN4c3ccc(F)c(F)c3)cc2)nn1 [Example 47, 4-(3,4-difluorophenyl)-N-[4-(4-methyltriazol-1-yl)phenyl]-6,7-dihydro-5H-[1,2,4]triazolo[1,5-a]pyrimidin-2-amine]"
14,14.4,"COc1cc(Nc2nc3n(n2)CCCN3c2ccc(F)c(F)c2F)ccc1-c1cnc(C)o1 [Example 15, N-[3-methoxy-4-(2-methyloxazol-5-yl)phenyl]-4-(2,3,4-trifluorophenyl)-6,7-dihydro-5H-[1,2,4]triazolo[1,5-a]pyrimidin-2-amine]"
15,102,"Fc1ccc(N2CCCn3nc(Nc4ccc(-n5cnc(Cl)n5)c(F)c4)nc32)cc1F [Example 21, N-[4-(3-chloro-1,2,4-triazol-1-yl)-3-fluoro-phenyl]-4-(3,4-difluorophenyl)-6,7-dihydro-5H-[1,2,4]triazolo[1,5-a]pyrimidin-2-amine]"
16,65.4,"COc1cc(Nc2nc3n(n2)CCN3c2ccc(C(F)(F)F)cc2)ccc1-n1cnc(Cl)c1 [Example 44, N-[4-(4-chloroimidazol-1-yl)-3-methoxy-phenyl]-4-[4-(trifluoromethyl)phenyl]-5,6-dihydroimidazo[1,2-b][1,2,4]triazol-2-amine]"
17,61.9,"COc1cc(Nc2nc3n(n2)CCCCN3c2ccc(F)c(F)c2)ccc1-n1cnc(C(F)(F)F)c1 [Example 10, 4-(3,4-difluorophenyl)-N-[3-methoxy-4-[4-(trifluoromethyl)imidazol-1-yl]phenyl]-5,6,7,8-tetrahydro-[1,2,4]triazolo[1,5-a][1,3]diazepin-2-amine]"
18,37,"COc1cc(Nc2nc3n(n2)CCCN3c2ccc(F)c(F)c2)ccc1-n1cnc(C(F)(F)F)c1 [Example 3, 4-(3,4-difluorophenyl)-N-[3-methoxy-4-[4-(trifluoromethyl)imidazol-1-yl]phenyl]-6,7-dihydro-5H-[1,2,4]triazolo[1,5-a]pyrimidin-2-amine]"
19,94.7,"COc1cc(Nc2nc3n(n2)CCCN3c2ccccc2)ccc1-n1cnc(C)n1 [Example 48, N-[3-methoxy-4-(3-methyl-1,2,4-triazol-1-yl)phenyl]-4-phenyl-6,7-dihydro-5H-[1,2,4]triazolo[1,5-a]pyrimidin-2-amine]"
20,137,"Fc1ccc(N2CCCn3nc(Nc4ccc(-n5cnc(Cl)c5)c(Cl)c4)nc32)cc1F [Example 28, N-[3-chloro-4-(4-chloroimidazol-1-yl)phenyl]-4-(3,4-difluorophenyl)-6,7-dihydro-5H-[1,2,4]triazolo[1,5-a]pyrimidin-2-amine]"
21,30.4,"COc1cc(Nc2nc3n(n2)CCCN3c2cccc(F)c2)ccc1-n1cnc(C)n1 [Example 31, 4-(3-fluorophenyl)-N-[3-methoxy-4-(3-methyl-1,2,4-triazol-1-yl)phenyl]-6,7-dihydro-5H-[1,2,4]triazolo[1,5-a]pyrimidin-2-amine]"
22,20.4,"Cc1ncc(-c2ccc(Nc3nc4n(n3)CCCN4c3ccc(F)c(F)c3)cc2F)o1 [Example 19, 4-(3,4-difluorophenyl)-N-[3-fluoro-4-(2-methyloxazol-5-yl)phenyl]-6,7-dihydro-5H-[1,2,4]triazolo[1,5-a]pyrimidin-2-amine]"
23,20.3,"COc1cc(Nc2nc3n(n2)CCCN3c2ccc(F)c(F)c2)ccc1-n1cnc(F)c1 [Example 40, 4-(3,4-difluorophenyl)-N-[4-(4-fluoroimidazol-1-yl)-3-methoxy-phenyl]-6,7-dihydro-5H-[1,2,4]triazolo[1,5-a]pyrimidin-2-amine]"
24,35.8,"COc1cc(Nc2nc3n(n2)CCCCN3c2ccc(F)c(F)c2)ccc1-n1cnc(C)n1 [Example 8, 4-(3,4-difluorophenyl)-N-[3-methoxy-4-(3-methyl-1,2,4-triazol-1-yl)phenyl]-5,6,7,8-tetrahydro-[1,2,4]triazolo[1,5-a][1,3]diazepin-2-amine]"
25,24.8,"Cc1ncnn1-c1ccc(Nc2nc3n(n2)CCCN3c2ccc(F)c(F)c2)cc1F [Example 13, 4-(3,4-difluorophenyl)-N-[3-fluoro-4-(5-methyl-1,2,4-triazol-1-yl)phenyl]-6,7-dihydro-5H-[1,2,4]triazolo[1,5-a]pyrimidin-2-amine]"
26,17.5,"Cc1ncc(-c2ncc(Nc3nc4n(n3)CCCN4c3ccc(F)cc3)cc2F)o1 [Example 39, N-[5-fluoro-6-(2-methyloxazol-5-yl)-3-pyridyl]-4-(4-fluorophenyl)-6,7-dihydro-5H-[1,2,4]triazolo[1,5-a]pyrimidin-2-amine]"
27,13.2,"COc1cc(Nc2nc3n(n2)CCCCN3c2ccc(F)c(F)c2)ccc1-c1cnc(C)o1 [Example 7, 4-(3,4-difluorophenyl)-N-[3-methoxy-4-(2-methyloxazol-5-yl)phenyl]-5,6,7,8-tetrahydro-[1,2,4]triazolo[1,5-a][1,3]diazepin-2-amine]"
28,32.9,"COc1cc(Nc2nc3n(n2)CCCN3c2ccc(F)c(F)c2F)ccc1-n1cnc(C)n1 [Example 16, N-[3-methoxy-4-(3-methyl-1,2,4-triazol-1-yl)phenyl]-4-(2,3,4-trifluorophenyl)-6,7-dihydro-5H-[1,2,4]triazolo[1,5-a]pyrimidin-2-amine]"
29,89.9,"Fc1ccc(N2CCCn3nc(Nc4ccc(-n5cncn5)c(F)c4)nc32)cc1F [Example 14, 4-(3,4-difluorophenyl)-N-[3-fluoro-4-(1,2,4-triazol-1-yl)phenyl]-6,7-dihydro-5H-[1,2,4]triazolo[1,5-a]pyrimidin-2-amine]"
